Tests used:
[1] = system: rabbit serum obtained by immunizing a rabbit with the SARS-CoV strain Frankfurt 1; format: binding; parameters: Binding of a rabbit serum to linear peptides / Binding of a rabbit serum to looped peptides / Rabbit serum linear peptides / Rabbit serum looped peptides / Binding of a rabbit serum to linear peptides of protein N of SARS-CoV Urbani (Rabbit serum linear peptides) / Binding of a rabbit serum to looped/cyclic peptides of protein N of SARS-CoV Urbani (Rabbit serum looped peptides): unit not given here
[2] = system: control sera (pooled serum of ten healthy LUMC hospital workers; commercial negative donor pooled serum from the Dutch bloodbank); format: binding, human; parameters: Binding of Control serum LUMC to linear peptides / Binding of Control serum Blood-bank to linear peptides / Binding of Control serum LUMC to looped peptides / Binding of Control Serum Blood-Bank to Looped peptides / Binding of Control serum LUMC to linear peptides of the protein M of SARS-CoV Urbani / Binding of Control serum Blood-bank to linear peptides of the protein M of SARS-CoV Urbani / Binding of Control serum LUMC to looped peptides of the protein M of SARS-CoV Urbani / Binding of Control Serum Blood-Bank to Looped peptides of the protein M of SARS-CoV Urbani: unit not given here
[3] = system: antibodies in sera from SARS patients (sera 1a, 1b, 2, 6, 37, 62, London, SARS-yellow, SARS-green); format: binding, human; parameters: Binding of serum 6 to linear peptides of protein X1 of SARS-CoV Urbani / Binding of serum 37 to linear peptides of protein X1 of SARS-CoV Urbani / Binding of serum 6 to looped/cyclic peptide (PEPSCAN-ELISA) / Binding of serum 37 to looped/cyclic peptide (PEPSCAN-ELISA) / Binding of serum 37 to looped/cyclic peptides of protein X1 of SARS-CoV Urbani / Binding of serum 6 to linear peptides of protein X2 / Binding of serum 37 to linear peptides of protein X2 / Binding of serum 37 to looped/cyclic peptides of protein X2 of SARS-CoV Urbani / Binding of serum 6 to linear peptides of protein M of SARS-CoV Urbani / Binding of serum 37 to linear peptides of protein M of SARS-CoV Urbani / Binding of serum 6 to looped/cyclic peptides of protein M of SARS-CoV Urbani / Binding of serum 37 to looped/cyclic peptides of protein M of SARS-CoV Urbani / Binding of serum 6 to linear peptides of protein X3 of SARS-CoV Urbani / Binding of serum 37 to linear peptides of protein X3 of SARS-CoV Urbani / Binding of serum 37 to looped/cyclic peptides of protein X3 of SARS-CoV Urbani / Binding of serum 6 to linear peptides of protein X4 of SARS-CoV Urbani / Binding of serum 37 to linear peptides of protein X4 of SARS-CoV Urbani / Binding of serum 37 to looped/cyclic peptides of protein X4 of SARS-CoV Urbani / Binding of serum 6 to linear peptides of protein X5 of SARS-CoV Urbani / Binding of serum 37 to linear peptides of protein X5 of SARS-CoV Urbani / Binding of serum 37 to looped/cyclic peptides of protein X5 of SARS-CoV Urbani / Binding of serum 6 to linear peptides of protein N of SARS-CoV Urbani / Binding of serum 37 to linear peptides of protein N of SARS-CoV Urbani / Binding of serum 6 to linear peptide (PEPSCAN-ELISA) / Binding of serum 1a to looped/cyclic peptides of protein N of SARS-CoV Urbani / Binding of serum 1b to looped/cyclic peptides of protein N of SARS-CoV Urbani / Binding of serum 2 to looped/cyclic peptides of protein N of SARS-CoV Urbani / Binding of serum 6 to looped/cyclic peptides of protein N of SARS-CoV Urbani / Binding of serum 37 to looped/cyclic peptides of protein N of SARS-CoV Urbani / Binding of serum 62 to looped/cyclic peptides of protein N of SARS-CoV Urbani / Binding of serum London to looped/cyclic peptides of protein N of SARS-CoV Urbani / Binding of serum SARS-green to looped/cyclic peptides of protein N of SARS-CoV Urbani: unit not given here
[4] = system: recombinant human anti-SARS-CoV antibody 03-018; format: binding; parameters: Binding of antibody 03-018 to linear peptides of the N protein of SARS-CoV Urbani / Binding of antibody 03-018 to looped/cyclic peptides of the N protein of SARS-CoV Urbani: unit not given here

Row | Sequence | Binding of serum 1a to linear peptides of protein N of SARS-CoV Urbani [3] | Binding of serum 1a to looped/cyclic peptides of protein N of SARS-CoV Urbani [3] | Binding of serum 1b to linear peptides of protein N of SARS-CoV Urbani [3] | Binding of serum 1b to looped/cyclic peptides of protein N of SARS-CoV Urbani [3] | Binding of serum 2 to linear peptides of protein N of SARS-CoV Urbani [3] | Binding of serum 2 to looped/cyclic peptides of protein N of SARS-CoV Urbani [3] | Binding of serum 6 to linear peptides of protein N of SARS-CoV Urbani [3] | Binding of serum 6 to looped/cyclic peptides of protein N of SARS-CoV Urbani [3] | Binding of serum 37 to linear peptides of protein N of SARS-CoV Urbani [3] | Binding of serum 37 to looped/cyclic peptides of protein N of SARS-CoV Urbani [3] | Binding of serum 62 to linear peptides of protein N of SARS-CoV Urbani [3] | Binding of serum 62 to looped/cyclic peptides of protein N of SARS-CoV Urbani [3] | Binding of serum London to linear peptides of protein N of SARS-CoV Urbani [3] | Binding of serum London to looped/cyclic peptides of protein N of SARS-CoV Urbani [3] | Binding of serum SARS-green to linear peptides of protein N of SARS-CoV Urbani [3] | Binding of serum SARS-green to looped/cyclic peptides of protein N of SARS-CoV Urbani [3] | Binding of serum SARS-yellow to linear peptides of protein N of SARS-CoV Urbani [3] | Binding of serum SARS-yellow to looped/cyclic peptides of protein N of SARS-CoV Urbani [3] | Binding of antibody 03-018 to linear peptides of the N protein of SARS-CoV Urbani [4] | Binding of antibody 03-018 to looped/cyclic peptides of the N protein of SARS-CoV Urbani [4] | other results
1 | DAYKTFPPTEPKKDK | 0.3 | 0.2 | 0.2 | 0.1 | 0.3 | 0.2 | 0.3 | 0.1 | 0.8 | 0.3 | 1.1 | 0.2 | 0.6 | 0.2 | 0.4 | 0.0 | 0.7 | 0.1 | 0.1 | 0.2 | Binding of a rabbit serum to linear peptides of protein N of SARS-CoV Urbani (Rabbit serum linear peptides) [1]: 0.1; Binding of a rabbit serum to looped/cyclic peptides of protein N of SARS-CoV Urbani (Rabbit serum looped peptides) [1]: 0.1; Control Serum Blood-Bank Looped peptides [2]: 0.2; Control serum Blood-bank linear peptides [2]: 0.8; Control serum LUMC linear peptides [2]: 0.6; Control serum LUMC looped peptides [2]: 0.2
2 | DDQIGYYRRATRRVR | 0.3 | 0.4 | 0.1 | 0.2 | 0.3 | 0.5 | 0.3 | 0.4 | 0.7 | 0.9 | 0.9 | 0.7 | 0.7 | 0.5 | 0.6 | 0.4 | 0.6 | 0.5 | 0.1 | 0.3 | Recognition of the peptide by the rabbit serum [1]: recognized; Binding of Control Serum Blood-Bank to Looped peptides [2]: 0.8; Binding of Control serum Blood-bank to linear peptides [2]: 1.0; Binding of Control serum LUMC to linear peptides [2]: 1.0; Binding of Control serum LUMC to looped peptides [2]: 0.8
3 | DFSRQLQNSMSGASA | 0.2 | 0.3 | 0.1 | 0.1 | 0.2 | 0.4 | 0.2 | 0.2 | 0.7 | 0.4 | 0.6 | 0.2 | 0.5 | 0.3 | 0.3 | 0.4 | 0.5 | 0.2 | 0.1 | 0.2 | Binding of a rabbit serum to linear peptides of protein N of SARS-CoV Urbani (Rabbit serum linear peptides) [1]: 0.5; Binding of a rabbit serum to looped/cyclic peptides of protein N of SARS-CoV Urbani (Rabbit serum looped peptides) [1]: 0.6; Control Serum Blood-Bank Looped peptides [2]: 0.5; Control serum Blood-bank linear peptides [2]: 0.6; Control serum LUMC linear peptides [2]: 0.6; Control serum LUMC looped peptides [2]: 0.4
